Data as given in ChEMBL document CHEMBL1201862, “PubChem BioAssay data set” (2004).
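Tested at 5 concentrations; 48 h exposure; 96-well plates; endpoints linearly interpolated, else capped at highest concentration. Abbreviation: GI50, concentration required for 50% inhibition of growth.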 Active and inactive are the calls of the source. No stated cut-off is given here; in the data, active = GI50 up to about 1.1 µM and inactive = higher.

Experiments:
Assay in all cases: NCI-60 cell line screen, 48 h
[1] = system: EKVX
[2] = system: HL-60
[3] = system: SF-539
[4] = system: CAKI-1
[5] = system: LOX IMVI
[6] = system: OVCAR-4
[7] = system: K562
[8] = system: UACC-257
[9] = system: Hs-578T
[10] = system: SK-MEL-28
[11] = system: NCI-H522
[12] = system: SF-295
[13] = system: SR
[14] = system: NCI/ADR-RES
[15] = system: A549
[16] = system: PC-3
[17] = system: NCI-H23
[18] = system: RXF 393

Measured: GI50

O=C1c2ccccc2-c2nc(-c3cccnc3)cc3c2c1nc1ccccc13
inactive: [1] > 100 µM | [2] 21.2 µM | [3] > 100 µM | [4] > 100 µM | [5] 40.3 µM | [6] > 100 µM | [7] > 100 µM | [8] > 100 µM | [9] > 100 µM | [10] > 100 µM | [11] > 100 µM | [12] 58.3 µM | [13] 11.9 µM | [14] > 100 µM | [15] > 100 µM | [16] > 100 µM | [17] 88.3 µM

Cc1ccc2nc(NC(=O)C(=O)C(C(=O)c3ccc4ccccc4c3)C3OC(=O)c4ccccc43)sc2c1 (centres undefined)
inactive: [1] 17.5 µM | [18] 1.87 µM | [3] 2.63 µM | [4] 12.2 µM | [5] 10.2 µM | [6] 22.7 µM | [8] 13.1 µM | [10] 5.21 µM | [11] 12 µM | [12] 4.61 µM | [13] 3.33 µM | [15] 11.5 µM | [17] 4.99 µM

COc1ccc(-c2cc(=O)c3ccccc3[nH]2)c(OC)c1
inactive: [1] > 100 µM | [18] > 100 µM | [2] 73.6 µM | [3] > 100 µM | [5] > 100 µM | [7] > 100 µM | [8] > 100 µM | [10] > 100 µM | [11] > 100 µM | [12] > 100 µM | [13] > 100 µM | [15] > 100 µM | [17] > 100 µM

CCC(C)Cn1c(C)nc2c1C(=O)c1ccccc1C2=O (centres undefined)
inactive: [1] 31.9 µM | [18] 33.9 µM | [2] 5.06 µM | [3] 17.7 µM | [5] 19.4 µM | [6] 38 µM | [7] 5.42 µM | [8] 23.5 µM | [10] 37.2 µM | [11] 30 µM | [12] 38.8 µM | [13] 2.81 µM | [15] 31.5 µM | [17] 20.7 µM

Oc1nc2cc(Cl)ccc2nc1/C(=N\Nc1ccccc1)C(O)c1ccc(Cl)c(Cl)c1 (centres undefined)
inactive: [1] > 100 µM | [18] > 100 µM | [2] > 100 µM | [3] > 100 µM | [5] > 100 µM | [6] > 100 µM | [7] > 100 µM | [8] > 100 µM | [11] > 100 µM | [12] > 100 µM | [13] > 100 µM | [15] > 100 µM | [17] > 100 µM

CCCCCCCCCCCCOP(N)(=O)OCCCCCCCCCCCC
inactive: [1] > 100 µM | [18] > 100 µM | [2] > 100 µM | [3] > 100 µM | [5] > 100 µM | [7] > 100 µM | [8] > 100 µM | [10] > 100 µM | [11] > 100 µM | [12] > 100 µM | [13] > 100 µM | [15] > 100 µM | [17] > 100 µM

CC1(C)C(=O)C(C)(C)C1=S
inactive: [1] > 100 µM | [2] > 100 µM | [4] > 100 µM | [5] > 100 µM | [6] > 100 µM | [7] > 100 µM | [8] > 100 µM | [10] > 100 µM | [11] > 100 µM | [12] > 100 µM | [13] > 100 µM | [15] > 100 µM | [17] > 100 µM

CNc1ccc2c(c1)Cc1ccccc1-2
inactive: [1] 12.7 µM | [18] 34.8 µM | [2] 20.3 µM | [3] 32.4 µM | [4] 30.6 µM | [5] 50.9 µM | [6] 26.5 µM | [7] 31.1 µM | [8] 61.1 µM | [9] 33.3 µM | [10] 44.5 µM | [11] 21.9 µM | [12] 47.2 µM | [13] 27 µM | [14] > 100 µM | [15] 22.5 µM | [16] 32.7 µM | [17] 75.2 µM
